For orientation: IC50 means the concentration at which inhibition is half-maximal. Read a low IC50 as greater potency in that assay. One may read the Kd as the concentration at which binding is half-saturated.

Data on three compounds can be found in US11638765B2, “Double-labeled probe for molecular imaging and use thereof” (Deutsches Krebsforschungszentrum, priority 2017, dated 2023).

Series [1] in a line: Biodistribution (organ distribution) of 68Ga-labeled compounds in LNCaP-tumor bearing mice. It counts as in vivo, BALB/c nu/nu mice. To be noted: 1 h p.i. As for the experimental part: The precursor peptides [1 nmol in HEPES buffer (580 mg/ml), 40 μL] were added to 40 μL [^68Ga]Ga^3+ eluate (˜40 MBq). The pH was adjusted to 3.8 using 30% NaOH and 10% NaOH, respectively. The reaction mixture was incubated at 98° C. for 10 minutes. The radiochemical yield (RCY) was determined by HPLC.
For the experimental tumor models 5×10^6 cells of LNCaP (in 50% Matrigel; Becton Dickinson, Heidelberg, Germany) were subcutaneously inoculated into the right trunk of 7- to 8-week-old male BALB/c nu/nu mice (Charles River). The tumors were allowed to grow until approximately 1 cm^3 in size. The ^68Ga-labeled compounds were injected into a tail vein (1-2 MBq; 60 pmol). At 1 h after injection the animals were sacrificed. Organs of interest were dissected, blotted dry, and weighed. The radioactivity was measured using a gamma counter and calculated as % ID/g. All animal experiments complied with the current laws of the Federal Republic of Germany.

In the next series the target is T1, PSMA (PSMA+ LNCaP cells) (Homo sapiens, UniProt Q04609).
T1 construct: host or cells: LNCaP cells
T1 sequence (Q04609 whole entry): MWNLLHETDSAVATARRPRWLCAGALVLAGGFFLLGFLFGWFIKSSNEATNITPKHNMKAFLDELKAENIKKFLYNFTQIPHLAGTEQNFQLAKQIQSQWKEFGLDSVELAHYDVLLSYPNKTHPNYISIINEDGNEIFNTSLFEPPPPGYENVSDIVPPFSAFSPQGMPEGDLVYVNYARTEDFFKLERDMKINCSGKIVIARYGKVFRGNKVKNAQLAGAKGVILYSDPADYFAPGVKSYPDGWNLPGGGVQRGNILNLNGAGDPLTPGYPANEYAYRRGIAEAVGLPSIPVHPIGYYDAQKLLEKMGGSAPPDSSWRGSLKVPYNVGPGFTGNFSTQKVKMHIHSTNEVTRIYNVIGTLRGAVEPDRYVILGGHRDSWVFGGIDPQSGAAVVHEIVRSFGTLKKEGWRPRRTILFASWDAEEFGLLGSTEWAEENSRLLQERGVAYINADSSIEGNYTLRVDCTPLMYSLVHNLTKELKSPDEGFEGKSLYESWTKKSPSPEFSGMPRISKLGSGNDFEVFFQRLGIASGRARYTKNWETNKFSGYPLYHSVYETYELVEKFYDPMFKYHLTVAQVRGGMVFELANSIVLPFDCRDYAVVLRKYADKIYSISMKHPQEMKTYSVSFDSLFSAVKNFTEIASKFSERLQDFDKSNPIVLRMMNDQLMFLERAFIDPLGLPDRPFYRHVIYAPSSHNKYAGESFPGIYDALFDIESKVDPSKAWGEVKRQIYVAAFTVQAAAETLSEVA
As to the kind of experiment: Competitive cell binding assay against 68Ga-labeled PSMA-10 radioligand. As to conditions: radioligand [68Ga]Ga-PSMA-10 0.75 nM, metal-free ligand. As for the experimental part:
(§1) PSMA^+ LNCaP cells (ATCC CRL-1740) were cultured in RPMI medium supplemented with 10% fetal calf serum and 2 mmol/L L-glutamine (all from PAA). Cells were grown at 37° C. in humidified air with 5% CO2 and were harvested using trypsin-ethylenediaminetetraacetic acid (trypsin-EDTA; 0.25% trypsin, 0.02% EDTA, Invitrogen).
The competitive cell binding assay and internalization experiments were performed as described previously (4). Briefly, the cells (10^5 per well) were incubated with a 0.75 nM solution of ^68Ga-labeled radioligand [Glu-urea-Lys(Ahx)]2-HBED-CC (PSMA-10, precursor ordered from ABX, Radeberg, Germany) in the presence of 12 different concentrations of analyte (0-5000 nM, 100 μL/well). After incubation, the mixture was removed and the wells were washed 3 times with PBS using a multiscreen vacuum manifold (Millipore, Billerica, Mass.). Cell-bound radioactivity was measured using a gamma counter (Packard Cobra II, GMI, Minn., USA). The 50% inhibitory concentration (IC50) values were calculated by fitting the data using a nonlinear regression algorithm (GraphPad Software).

The subject of another series is PSMA+ LNCaP cells. The series is described as follows: Internalization experiments (surface-bound and internalized fractions). The class given is cell-based. To be noted: 30 nM radiolabeled compound, 45 min. As for the experimental part: as §1
For internalization experiments, 10^5 cells per well were seeded in poly-L-lysine coated 24-well cell culture plates 24 h before incubation. After washing, the cells were incubated with 30 nM of the radiolabeled compound for 45 min at 37° C. and at 4° C., respectively. Cellular uptake was terminated by washing 3 times with 1 mL of ice-cold PBS. To remove surface-bound radioactivity, cells were incubated twice with 0.5 mL glycine-HCl in PBS (50 mM, pH=2.8) for 5 min. The cells were washed with 1 mL of ice-cold PBS and lysed using 0.3 N NaOH (0.5 mL). The surface-bound and the internalized fractions were measured in a gamma counter. The cell uptake was calculated as percent of the initially added radioactivity bound to 10^5 cells [% ID/10^5 cells].

The next series addresses PSMA (Homo sapiens, UniProt Q04609). To be noted: radioligand of the competitive binding assay; cited from earlier work.

PSMA, sequence (Q04609 whole entry, species assumed): as the sequence (Q04609 whole entry) above

For the compound “^68Ga-Glu-urea-Lys-2-Nal-Chx-Lys(IRDye800CW)-DOTA”, in series [1] (in words), the “Kidney uptake in comparison to the reference” value is “significantly reduced” and the “Tumor uptake in comparison to the reference” value is “comparable”. Besides, in series [1] (tail vein, 60 pmol, n = 3), the “Organ distribution, Blood (Mean)” value is 1.14 % ID/g; the “Organ distribution, Brain (Mean)” value stood at 0.07 % ID/g; the “Organ distribution, Heart (Mean)” value is 0.51 % ID/g; the “Organ distribution, Intestine (Mean)” value amounted to 0.43 % ID/g. Besides, in series [1] (tail vein, 60 pmol, n = 3), the “Organ distribution, Kidney (Mean)” value amounted to 65.64 % ID/g; the “Organ distribution, Liver (Mean)” value stood at 0.95 % ID/g; the “Organ distribution, Lung (Mean)” value came out at 1.47 % ID/g; the “Organ distribution, Muscle (Mean)” value worked out at 0.34 % ID/g. Further, in series [1] (tail vein, 60 pmol, n = 3), the “Organ distribution, Spleen (Mean)” value is reported as 2.82 % ID/g. Moreover, in series [1] (LNCaP tumor, tail vein, 60 pmol, n = 3), the “Organ distribution, Tumor (Mean)” value turned out to be 4.13 % ID/g.
Compound `CC1(C)C(/C=C/C2=C(Oc3ccc(S(=O)(=O)O)cc3)C(=C/C=C3/N(CCCCS(=O)(=O)O)c4ccc(S(=O)(=O)O)cc4C3(C)C)/CCC2)=[N+](CCCCCC(=O)NCCCC[C@H](NC(=O)CN2CCN(CC(=O)O)CCN(CC(=O)O)CCN(CC(=O)O)CC2)C(=O)NC[C@H]2CC[C@H](C(=O)N[C@@H](Cc3ccc4ccccc4c3)C(=O)NCCCC[C@H](NC(=O)N[C@@H](CCC(=O)O)C(=O)O)C(=O)O)CC2)c2ccc(S(=O)(=O)[O-])cc21` (stereo in doubt) [Glu-urea-Lys-2-Nal-Chx-Lys(IRDye800CW)-DOTA] showed an IC50 at PSMA (PSMA+ LNCaP cells) of 15.9 ± 5.46 nM. Also, in the series on PSMA+ LNCaP cells, the “Specific cell surface bound” value was 25.51 ± 9.73 % ID/10^5 cells and the Specific internalized amounted to 27.64 ± 12.80 % ID/10^5 cells.
With “[Glu-urea-Lys(Ahx)]2-HBED-CC [[^68Ga]Ga -PSMA-10]”, on PSMA, the Kd was 2.1 nM.
